Consider three compounds from patent US7964531B2, “3-phenoxy-4-pyridazinol derivatives and herbicidal composition containing the same” (Mitsui Chemicals Agro, Inc., priority 2001, dated 2011).

Format in all cases: in vivo
Data set [1] relates to Scirpus joncoides. Description: Test Example 1: herbicidal effects, paddy-field pot test. As to conditions: wettable powder applied 3 days after transplanting, judged after 25 days. An outline of the steps: (§1)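 First, paddy soil was potted and seeded at the surface layer with non-dormant weed seeds; germinated Cyperus serotinus tubers were planted and 2.2-leaf rice transplanted. Three days later, diluted wettable powder was applied under flooding. Inhibition was rated 0–5 after 25 days.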

In data set [2] the test system is Cyperus serotinus. The data set is described as above. As to conditions: wettable powder applied 3 days after transplanting, judged after 25 days. An outline of the steps:
as §1

In data set [3] the test system is annual broad-leaved weeds (Lindernia spp., Rotala indica). The data set is described as above. As to conditions: wettable powder applied 3 days after transplanting, judged after 25 days. The method, boiled down: as §1
For data set [4], the system named is barnyardgrass (Echinochloa oryzicola Vasing.). The description is as above. As to conditions: wettable powder applied 3 days after transplanting, judged after 25 days. An outline of the steps:
as §1

For data set [5], the system named is transplanted paddy-field rice. Briefly: Test Example 4: crop injury against transplanted paddy-field rice. As to conditions: no second compound, after 25 days. On the procedure: (§2) Paddy filed soil was filled in 1/5000 are Wagner pot, seeds of barnyardgrass (Echinochloa oryzicola Vasing.), Scirpus joncoides and annual broad-leaved weeds (Lindernia spp. and Rotala indica) which are awaken from dormancy were mixed at the surface layer of 1 cm. Also, tubers of Cyperus serotinus, Sagittaria pygmaea and Eleocharis kuroguwai which are awaken from dormancy were planted, and further seedlings of paddy-field rice at 2.2-leaf stage were transplanted and they were grown under the flooded condition in a greenhouse. After 3 days from the transplanting, a predetermined chemical dosage of the wettable powder prepared in accordance with Preparation example 5 was diluted with water, and applied to the pot. After 25 days, herbicidal effects and crop injury against transplanted paddy-field rice were judged according to the following judgment standard, and the results were shown in Table 5. Incidentally, “-” in the table means a composition containing no effective ingredient.
(§3) Judgment Standard • 0: Growth-inhibition rate; 0 to 15% • 1: Growth inhibition rate; 16 to 35% • 2: Growth inhibition rate; 36 to 55% • 3: Growth inhibition rate; 56 to 75% • 4: Growth inhibition rate; […] • 5: Growth inhibition rate; 96 to 100%.

For data set [6], the system named is transplanted paddy-field rice. Briefly: Test Example 1: crop injury against transplanted paddy-field rice. As to conditions: wettable powder applied 3 days after transplanting, judged after 25 days. The method, boiled down:
as §1

For another data set, the system named is Sagittaria pygmaea. Description: Test Example 4: herbicidal effects of mixed wettable powder, paddy-field pot test. As to conditions: no second compound, after 25 days. On the procedure: as §2, §3
The test system of data set [7] is annual broad-leaved weeds (Lindernia spp. and Rotala indica). The data set is described as above. As to conditions: no second compound, after 25 days. As for the experimental part:
as §2, §3

For data set [8], the system named is Scirpus joncoides. The data set is described as above. As to conditions: no second compound, after 25 days. On the procedure: as §2, §3
Data set [9] relates to Cyperus serotinus. The description is as above. As to conditions: no second compound, after 25 days. On the procedure:
as §2, §3

Data set [10] deals with barnyardgrass (Echinochloa oryzicola Vasing.). The data set is described as above. As to conditions: no second compound, after 25 days. As for the experimental part:
as §2, §3

A further data set deals with Eleocharis kuroguwai. Described as above. As to conditions: no second compound, after 25 days. On the procedure:
as §2, §3

`Oc1cc(Cl)nnc1Oc1ccccc1C1CC1` [Example 6]: the “Herbicidal effects Scirpus joncoides” value in the data set on Scirpus joncoides [1] (chemical dosage 10 g/a) was 5 (Growth inhibition rate; 91 to 100%); in the data set on Scirpus joncoides [1] (chemical dosage 20 g/a) it was 5 (Growth inhibition rate; 91 to 100%); with Scirpus joncoides [8] (derivative 5 g/a) it was 5 (Growth inhibition rate; 96 to 100%); in the data set with Scirpus joncoides [8] (derivative 10 g/a), 5 (Growth inhibition rate; 96 to 100%). Besides, the “Herbicidal effects Cyperus serotinus” value is listed as 5 (Growth inhibition rate; 91 to 100%) with Cyperus serotinus [2] (chemical dosage 10 g/a), 5 (Growth inhibition rate; 91 to 100%) with Cyperus serotinus [2] (chemical dosage 20 g/a), 5 (Growth inhibition rate; 96 to 100%) in the data set with Cyperus serotinus [9] (derivative 5 g/a) and 5 (Growth inhibition rate; 96 to 100%) in the data set on Cyperus serotinus [9] (derivative 10 g/a). For the same compound, the “Herbicidal effects Broad leaf” value in data set [3] (chemical dosage 10 g/a) is 5 (Growth inhibition rate; 91 to 100%); in [3] (chemical dosage 20 g/a), 5 (Growth inhibition rate; 91 to 100%); in [7] (derivative 5 g/a), 5 (Growth inhibition rate; 96 to 100%); in data set [7] (derivative 10 g/a), 5 (Growth inhibition rate; 96 to 100%). Further, the “Herbicidal effects Barnyard grass” value in data set [4] (chemical dosage 10 g/a) is listed as 2 (Growth inhibition rate; 31 to 50%); in [4] (chemical dosage 20 g/a), 3 (Growth inhibition rate; 51 to 70%); in [10] (derivative 5 g/a) it was 1 (Growth inhibition rate; 16 to 35%); in [10] (derivative 10 g/a), 2 (Growth inhibition rate; 36 to 55%). The “Crop injury against transplanted rice” value in data set [5] (derivative 5 g/a) was 0 (Growth-inhibition rate; 0 to 15%); in [5] (derivative 10 g/a), 0 (Growth-inhibition rate; 0 to 15%); in data set [6] (chemical dosage 10 g/a), 0 (Growth inhibition rate; 0 to 10%); in data set [6] (chemical dosage 20 g/a) it was 0 (Growth inhibition rate; 0 to 10%). Besides, the “Herbicidal effects Sagittaria pygmaea” value in the data set with Sagittaria pygmaea (derivative 5 g/a) and with Sagittaria pygmaea (derivative 10 g/a) was 5 (Growth inhibition rate; 96 to 100%) throughout. The “Herbicidal effects Eleocharis kuroguwai” value in the data set with Eleocharis kuroguwai (derivative 5 g/a) is reported as 2 (Growth inhibition rate; 36 to 55%); in the data set with Eleocharis kuroguwai (derivative 10 g/a), 3 (Growth inhibition rate; 56 to 75%).
Consider `Oc1cc(Cl)nnc1Oc1cccc2ccoc12` [Example 191], for which the “Herbicidal effects Scirpus joncoides” value with Scirpus joncoides [1] (chemical dosage 10 g/a) was 5 (Growth inhibition rate; 91 to 100%); with Scirpus joncoides [1] (chemical dosage 20 g/a) it was 5 (Growth inhibition rate; 91 to 100%); with Scirpus joncoides [8] (derivative 2.5 g/a), 3 (Growth inhibition rate; 56 to 75%). Also, the “Herbicidal effects Cyperus serotinus” value is on record as 5 (Growth inhibition rate; 91 to 100%) with Cyperus serotinus [2] (chemical dosage 10 g/a), 5 (Growth inhibition rate; 91 to 100%) with Cyperus serotinus [2] (chemical dosage 20 g/a) and 5 (Growth inhibition rate; 96 to 100%) with Cyperus serotinus [9] (derivative 2.5 g/a). Further, the “Herbicidal effects Broad leaf” value was 5 (Growth inhibition rate; 91 to 100%) in data set [3] (chemical dosage 10 g/a), 5 (Growth inhibition rate; 91 to 100%) in [3] (chemical dosage 20 g/a) and 3 (Growth inhibition rate; 56 to 75%) in data set [7] (derivative 2.5 g/a). Also, the “Herbicidal effects Barnyard grass” value is on record as 4 (Growth inhibition rate; 71 to 90%) in data set [4] (chemical dosage 10 g/a), 5 (Growth inhibition rate; 91 to 100%) in [4] (chemical dosage 20 g/a) and 1 (Growth inhibition rate; 16 to 35%) in data set [10] (derivative 2.5 g/a). In addition, the “Crop injury against transplanted rice” value is on record as 0 (Growth-inhibition rate; 0 to 15%) in [5] (derivative 2.5 g/a), 2 (Growth inhibition rate; 31 to 50%) in data set [6] (chemical dosage 10 g/a) and 5 (Growth inhibition rate; 91 to 100%) in [6] (chemical dosage 20 g/a). Also, the “Herbicidal effects Sagittaria pygmaea” value in the data set with Sagittaria pygmaea (derivative 2.5 g/a) is recorded as 2 (Growth inhibition rate; 36 to 55%). The “Herbicidal effects Eleocharis kuroguwai” value in the data set with Eleocharis kuroguwai (derivative 2.5 g/a) is on record as 1 (Growth inhibition rate; 16 to 35%).
For `COc1ccc(C)cc1Oc1nnc(Cl)cc1O` [Example 16], the “Herbicidal effects Scirpus joncoides” value with Scirpus joncoides [1] (chemical dosage 10 g/a) was 5 (Growth inhibition rate; 91 to 100%); in the data set with Scirpus joncoides [1] (chemical dosage 20 g/a), 5 (Growth inhibition rate; 91 to 100%); in the data set on Scirpus joncoides [8] (derivative 5 g/a) it was 3 (Growth inhibition rate; 56 to 75%); in the data set on Scirpus joncoides [8] (derivative 10 g/a) it was 5 (Growth inhibition rate; 96 to 100%). Further, the “Herbicidal effects Cyperus serotinus” value in the data set on Cyperus serotinus [2] (chemical dosage 10 g/a) is recorded as 5 (Growth inhibition rate; 91 to 100%); in the data set with Cyperus serotinus [2] (chemical dosage 20 g/a), 5 (Growth inhibition rate; 91 to 100%); in the data set on Cyperus serotinus [9] (derivative 5 g/a) it was 4 (Growth inhibition rate; 7.6 to 95%); with Cyperus serotinus [9] (derivative 10 g/a) it was 5 (Growth inhibition rate; 96 to 100%). For the same compound, the “Herbicidal effects Broad leaf” value in [3] (chemical dosage 10 g/a) is recorded as 5 (Growth inhibition rate; 91 to 100%); in [3] (chemical dosage 20 g/a), 5 (Growth inhibition rate; 91 to 100%); in data set [7] (derivative 5 g/a) it was 5 (Growth inhibition rate; 96 to 100%); in data set [7] (derivative 10 g/a) it was 5 (Growth inhibition rate; 96 to 100%). In addition, the “Herbicidal effects Barnyard grass” value in data set [4] (chemical dosage 10 g/a) was 0 (Growth inhibition rate; 0 to 10%); in data set [4] (chemical dosage 20 g/a), 1 (Growth inhibition rate; 11 to 30%); in [10] (derivative 5 g/a), 0 (Growth-inhibition rate; 0 to 15%); in [10] (derivative 10 g/a), 0 (Growth-inhibition rate; 0 to 15%). Moreover, the “Crop injury against transplanted rice” value in data set [5] (derivative 5 g/a) is listed as 0 (Growth-inhibition rate; 0 to 15%); in data set [5] (derivative 10 g/a) it was 0 (Growth-inhibition rate; 0 to 15%); in data set [6] (chemical dosage 10 g/a), 0 (Growth inhibition rate; 0 to 10%); in [6] (chemical dosage 20 g/a), 0 (Growth inhibition rate; 0 to 10%). For the same compound, the results for the “Herbicidal effects Sagittaria pygmaea” value in the data set on Sagittaria pygmaea (derivative 5 g/a) and with Sagittaria pygmaea (derivative 10 g/a) were 3 (Growth inhibition rate; 56 to 75%) and 4 (Growth inhibition rate; 7.6 to 95%), respectively. Further, the “Herbicidal effects Eleocharis kuroguwai” value was 0 (Growth-inhibition rate; 0 to 15%) with Eleocharis kuroguwai (derivative 5 g/a) and 1 (Growth inhibition rate; 16 to 35%) in the data set with Eleocharis kuroguwai (derivative 10 g/a).
